# Data published in patent US12239643B2, “Therapeutic agent for inflammatory diseases, autoimmune diseases, fibrotic diseases, and cancer diseases” (MEIJI SEIKA PHARMA CO., LTD., priority 2018, dated 2025).
# pIC50: −log10 of the molar value.
# Test system: PDE4
# Experiment: Evaluation of PDE4 inhibitory activity, scintillation proximity assay
# Format: biochemical
# Settings: scintillation proximity assay; read-out: PDE4 Inhibitory Activity (Evaluation 1; concentration for the inhibition rate of 50%)
# Procedure, shortened: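 SPA with [2,8-3H]-cAMP and diluted PDE4 enzyme preparation in 50 mM Tris-HCl pH 7.4, 8.3 mM MgCl2, 1.7 mM EGTA, 3 mg/mL BSA, 120 min at room temperature. Product captured on ZnSO4-containing YSi-SPA beads, scintillation counted; IC50 from inhibition curves vs DMSO control and no-enzyme blank.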
row,Compound,pIC50
1,"OCC(F)(F)Oc1ccc(-n2cccn2)c2oc(N3CC4CC(C3)N4)nc12 [Example 320, 2-((2-(3,6-Diazabicyclo[3.1.1]heptan-3-yl)-7-(1H-pyrazol-1-yl)benzo[d]oxazol-4-yl)oxy)-2,2-difluoroethan-1-ol]",> 7.00
2,"c1csc(-c2ccc(C3CC3)c3nc(N4CC5CC(C4)N5)oc23)n1 [Example 344, 2-(3,6-Diazabicyclo[3.1.1]heptan-3-yl)-4-cyclopropyl-7-(thiazol-2-yl)benzo[d]oxazole]",> 7.00
3,"CSc1ccc(-c2nccs2)c2oc(N3CC4CC(C3)N4)nc12 [Example 345, 2-(3,6-Diazabicyclo[3.1.1]heptan-3-yl)-4-(methylthio)-7-(thiazol-2-yl)benzo[d]oxazole]",> 7.00
4,"C=CC(F)(F)Oc1ccc(-c2nccs2)c2oc(N3CC4CC(C3)N4)nc12 [Example 351, 2-(3,6-Diazabicyclo[3.1.1]heptan-3-yl)-4-((1,1-difluoroallyl)oxy)-7-(thiazol-2-yl)benzo[d]oxazole]",> 7.00
5,"O=C(NCc1ccccc1)c1ccc(-c2nccs2)c2oc(N3CC4CC(C3)N4)nc12 [Example 361, N-benzyl-2-(3,6-diazabicyclo[3.1.1]heptan-3-yl)-7-(thiazol-2-yl)benzo[d]oxazole-4-carboxamide]",> 7.00
6,"CC(C)C(O)C(F)(F)Oc1ccc(-c2nccs2)c2oc(N3CC4CC(C3)N4)nc12 (centres unmarked) [Example 362, 1-((2-(3,6-Diazabicyclo[3.1.1]heptan-3-yl)-7-(thiazol-2-yl)benzo[d]oxazol-4-yl)oxy)-1,1-difluoro-3-methylbutan-2-ol]",> 7.00
7,"O=C(O)c1ccc(-c2nccs2)c2oc(N3CC4CC(C3)N4)nc12 [Example 366, 2-(3,6-Diazabicyclo[3.1.1]heptan-3-yl)-7-(thiazol-2-yl)benzo[d]oxazole-4-carboxylic acid]",6.00 to 7.00
8,"O=C(NO)c1ccc(-c2nccs2)c2oc(N3CC4CC(C3)N4)nc12 [Example 367, 2-(3,6-Diazabicyclo[3.1.1]heptan-3-yl)-N-hydroxy-7-(thiazol-2-yl)benzo[d]oxazole-4-carboxamide]",> 7.00
9,"CC(C)(O)c1cc(-c2nccs2)c2oc(N3CC4CCC(C3)N4O)nc2c1OC(F)(F)F [Example 368, 3-(5-(2-Hydroxypropan-2-yl)-7-(thiazol-2-yl)-4-(trifluoromethoxy)benzo[d]oxazol-2-yl)-3,8-diazabicyclo[3.2.1]octan-8-ol]",6.00 to 7.00
10,"CC(C)(O)C(F)(F)Oc1ccc(-c2nccs2)c2oc(N3CC4CC(C3)N4O)nc12 [Example 371, 3-(4-(1,1-Difluoro-2-hydroxy-2-methylpropoxy)-7-(thiazol-2-yl)benzo[d]oxazol-2-yl)-3,6-diazabicyclo[3.1.1]heptan-6-ol]",> 7.00
11,"ON1C2CCC1CN(c1nc3c(OC(F)(F)F)c(Cl)cc(-c4nccs4)c3o1)C2 [Example 375, 3-(5-Chloro-7-(thiazol-2-yl)-4-(trifluoromethoxy)benzo[d]oxazol-2-yl)-3,8-diazabicyclo[3.2.1]octan-8-ol]",> 7.00
12,"CC(O)(O)C(F)(F)Oc1ccc(-c2nccs2)c2oc(N3CC4CC(C3)N4)nc12 [Example 377, 1-((2-(3,6-Diazabicyclo[3.1.1]heptan-3-yl)-7-(thiazol-2-yl)benzo[d]oxazol-4-yl)oxy)-1,1-difluoropropane-2,2-diol]",> 7.00
13,"OC(c1ccc(-c2nccs2)c2oc(N3CC4CCC(C3)N4O)nc12)C(F)(F)F (centres unmarked) [Example 378, 3-(7-(Thiazol-2-yl)-4-(2,2,2-trifluoro-1-hydroxyethyl)benzo[d]oxazol-2-yl)-3,8-diazabicyclo[3.2.1]octan-8-ol]",6.00 to 7.00
14,"OC(c1ccc(-c2nccs2)c2oc(N3CC4CCC(C3)N4O)nc12)C(F)(F)F (centres unmarked) [Example 379, 3-(7-(Thiazol-2-yl)-4-(2,2,2-trifluoro-1-hydroxyethyl)benzo[d]oxazol-2-yl)-3,8-diazabicyclo[3.2.1]octan-8-ol]",> 7.00
15,"ON1C2CC1CN(c1nc3c(OC(F)(F)F)ccc(-c4nccs4)c3o1)C2 [Example 380, 3-(7-(Thiazol-2-yl)-4-(trifluoromethoxy)benzo[d]oxazol-2-yl)-3,6-diazabicyclo[3.1.1]heptan-6-ol]",> 7.00
16,"CC(C)(O)c1cc(-c2nccs2)c2oc(N3CC4CCC(C3)N4O)nc2c1C(F)(F)F [Example 381, 3-(5-(2-Hydroxypropan-2-yl)-7-(thiazol-2-yl)-4-(trifluoromethyl)benzo[d]oxazol-2-yl)-3,8-diazabicyclo[3.2.1]octan-8-ol]",< 6.00

row,Compound,pIC50
1,"CC(O)c1cc(-c2nccs2)c2oc(N3CC4CCC(C3)N4O)nc2c1OC(F)(F)F (centres unmarked) [Example 383, 3-(5-(1-Hydroxyethyl)-7-(thiazol-2-yl)-4-(trifluoromethoxy)benzo[d]oxazol-2-yl)-3,8-diazabicyclo[3.2.1]octan-8-ol]",< 6.00
2,"CC(O)c1cc(-c2nccs2)c2oc(N3CC4CCC(C3)N4O)nc2c1C(F)(F)F (centres unmarked) [Example 384, 3-(5-(1-Hydroxyethyl)-7-(thiazol-2-yl)-4-(trifluoromethyl)benzo[d]oxazol-2-yl)-3,8-diazabicyclo[3.2.1]octan-8-ol]",< 6.00
3,"CNS(=O)(=O)c1ccc(-c2nccs2)c2oc(N3CC4CC(C3)N4)nc12 [Example 386, 2-(3,6-Diazabicyclo[3.1.1]heptan-3-yl)-N-methyl-7-(thiazol-2-yl)benzo[d]oxazole-4-sulfonamide]",> 7.00
4,"CN(C)S(=O)(=O)c1ccc(-c2nccs2)c2oc(N3CC4CC(C3)N4)nc12 [Example 388, 2-(3,6-Diazabicyclo[3.1.1]heptan-3-yl)-N,N-dimethyl-7-(thiazol-2-yl)benzo[d]oxazole-4-sulfonamide]",> 7.00
5,"CN(CCO)S(=O)(=O)c1ccc(-c2nccs2)c2oc(N3CC4CC(C3)N4)nc12 [Example 389, 2-(3,6-Diazabicyclo[3.1.1]heptan-3-yl)-N-(2-hydroxyethyl)-N-methyl-7-(thiazol-2-yl)benzo[d]oxazole-4-sulfonamide]",> 7.00
6,"O=S(=O)(c1ccc(-c2nccs2)c2oc(N3CC4CC(C3)N4)nc12)N1CCCC1 [Example 390, 2-(3,6-Diazabicyclo[3.1.1]heptan-3-yl)-4-(pyrrolidin-1-ylsulfonyl)-7-(thiazol-2-yl)benzo[d]oxazole]",> 7.00
7,"COC(C)(C)C(F)(F)Oc1ccc(-c2nccs2)c2oc(N3CC4CC(C3)N4)nc12 [Example 393, 2-(3,6-Diazabicyclo[3.1.1]heptan-3-yl)-4-(1,1-difluoro-2-methoxy-2-methylpropoxy)-7-(thiazol-2-yl)benzo[d]oxazole]",> 7.00
8,"NS(=O)(=O)c1ccc(-c2nccs2)c2oc(N3CC4CC(C3)N4)nc12 [Example 396, 2-(3,6-Diazabicyclo[3.1.1]heptan-3-yl)-7-(thiazol-2-yl)benzo[d]oxazole-4-sulfonamide]",> 7.00
9,"O=S1(=O)CCN(c2ccc(-c3nccs3)c3oc(N4CC5CC(C4)N5)nc23)CC1 [Example 398, 4-(2-(3,6-Diazabicyclo[3.1.1]heptan-3-yl)-7-(thiazol-2-yl)benzo[d]oxazol-4-yl)thiomorpholine 1,1-dioxide]",> 7.00
10,"CCC(F)(F)Oc1ccc(-c2nccs2)c2oc(N3CC4CC(C3)N4)nc12 [Example 402, 2-(3,6-Diazabicyclo[3.1.1]heptan-3-yl)-4-(1,1-difluoropropoxy)-7-(thiazol-2-yl)benzo[d]oxazole]",> 7.00
11,"FC(F)(Oc1ccc(-c2nccs2)c2oc(N3CC4CC(C3)N4)nc12)c1nc2ccccc2o1 [Example 403, 4-(Benzo[d]oxazol-2-yldifluoromethoxy)-2-(3,6-diazabicyclo[3.1.1]heptan-3-yl)-7-(thiazol-2-yl)benzo[d]oxazole]",> 7.00
12,"FC(F)(/C=C/c1cccnc1)Oc1ccc(-c2nccs2)c2oc(N3CC4CC(C3)N4)nc12 [Example 406, (E)-2-(3,6-diazabicyclo[3.1.1]heptan-3-yl)-4-((1,1-difluoro-3-(pyridin-3-yl)allyl)oxy)-7-(thiazol-2-yl)benzo[d]oxazole]",> 7.00
13,"CN(CCO)C(=O)C(F)(F)Oc1ccc(-c2nccs2)c2oc(N3CC4CC(C3)N4)nc12 [Example 407, 2-((2-(3,6-Diazabicyclo[3.1.1]heptan-3-yl)-7-(thiazol-2-yl)benzo[d]oxazol-4-yl)oxy)-2,2-difluoro-N-(2-hydroxyethyl)-N-methylacetamide]",> 7.00
14,"CN(C)C(=O)C(F)(F)Oc1ccc(-c2nccs2)c2oc(N3CC4CC(C3)N4)nc12 [Example 408, 2-((2-(3,6-Diazabicyclo[3.1.1]heptan-3-yl)-7-(thiazol-2-yl)benzo[d]oxazol-4-yl)oxy)-2,2-difluoro-N,N-dimethylacetamide]",> 7.00
15,"c1csc(-c2ccc(C3CCC3)c3nc(N4CC5CC(C4)N5)oc23)n1 [Example 414, 2-(3,6-Diazabicyclo[3.1.1]heptan-3-yl)-4-cyclobutyl-7-(thiazol-2-yl)benzo[d]oxazole]",> 7.00
16,"c1csc(-c2ccc(N3CCCC3)c3nc(N4CC5CC(C4)N5)oc23)n1 [Example 415, 2-(3,6-Diazabicyclo[3.1.1]heptan-3-yl)-4-(pyrrolidin-1-yl)-7-(thiazol-2-yl)benzo[d]oxazole]",> 7.00
